Assay results taken from a melting point compilation (Tetko et al.).

Compound | melting point
Oc1nnnn1-c1ccc(Cl)cc1 | 141 to 143 °C
CS(=O)(=O)c1nc2ccccc2[nH]1 | 188 to 192 °C
O=C(O)CCS(=O)(=O)c1ccc(Br)cc1 | 151 to 153 °C
O=C(O)c1cc(-c2ccccc2)nc2nc(N3CCCCC3)sc12 | 347 to 349 °C
O=Cc1cn(Cc2ccccc2)nc1-c1ccccc1 | 85 to 87 °C
O=c1[nH]c(CCl)nc2scc(-c3ccccc3Cl)c12 | 167 to 169 °C
OCC(NCc1ccccc1)C1CC1 (stereo not given) | 56 to 58 °C
CC(CC(=O)c1cccc(F)c1)C(=O)O (stereo not given) | 96 to 98 °C
N#CCCN1CCS1(=O)=O | 52 to 54 °C
COc1ccc(NS(=O)(=O)c2cc(N)ccc2N2CCCC2)cc1 | 178 to 182 °C
Cn1cc(N2C(=O)C=CC2=O)cn1 | 151 to 153 °C
O=C(O)CCCNC(=O)c1ccc2[nH]nnc2c1 | 230 to 232 °C
COc1ccc2[nH]cc(C3CCNCC3)c2c1 | 169 to 171 °C
CC(C)c1nc(I)c2ccccn12 | 84 to 86 °C
Clc1ccc2c(c1)NCCCS2 | 51 to 53 °C
Nc1ccc(Oc2ccc(Br)cc2)cc1 | 58 to 60 °C
O=C(O)Cc1coc(-c2ccc(Cl)cc2)n1 | 191 to 193 °C
O=C(CC(=O)NCc1ccccc1)NCc1ccccc1 | 119 to 121 °C
CC(C)CS(=O)(=O)CCC(=O)O | 110 to 112 °C
Nc1cnn(-c2cnc3ccccc3n2)c1 | 169 to 171 °C
O=c1c2ccccc2nc(O)n1-c1ccccc1 | 217 to 220 °C
Cc1cccc(Cc2cnc(N)s2)c1 | 100 to 102 °C
CC(=O)NC1(C(N)=NO)CCN(C)CC1 | 202 to 204 °C
NC(=O)N1CCC(=O)CC1 | 137 to 139 °C
NC(=S)c1cccc(S(N)(=O)=O)c1 | 152 to 154 °C

Compound | melting point
O=C(O)C1CCN(c2ccc(C(F)(F)F)cc2[N+](=O)[O-])CC1 | 141 to 143 °C
O=C(NC1CCCC1)c1cnc(Cl)c(Cl)c1 | 159 to 161 °C
Cc1nc2ccccc2c(=O)n1-c1ccc(F)cc1 | 134 to 136 °C
ClCc1nc(Cl)c2c3c(sc2n1)CCCC3 | 89 to 91 °C
O=C(O)CCCNc1nc(-c2ccccc2)cs1 | 155 to 157 °C
NC(=O)C(O)C1CCOC1 (stereo not given) | 84 to 86 °C
CC1C(C(F)(F)F)OC(=O)N1c1ncccc1N (stereo not given) | 62 to 64 °C
N#Cc1ccc(C(=O)NN)cc1 | 195 to 197 °C
c1ccc2[nH]c(C3CCCNC3)nc2c1 (stereo not given) | 189 to 191 °C
Nc1ccc(-c2nc3cc(Br)ccc3s2)cc1 | 189 to 191 °C
O=Cc1cccc(OC(C(=O)O)c2ccccc2)c1 (stereo not given) | 98 to 100 °C
COc1nc(C)cc(C)c1C#N | 96 to 98 °C
Cc1cc(=O)c(C(=O)O)nn1-c1ccccc1 | 167 to 169 °C
CCCS(=O)(=O)Nc1ccccc1C(C)NC (stereo not given) | 58 to 60 °C
O=C(CCl)Nc1ccc(O)cc1 | 145 to 147 °C
CNC(=O)CC(=O)O | 104 to 106 °C
Nc1cc(-c2c(F)cccc2F)no1 | 114 to 116 °C
O=Cc1ccccc1OCc1cn2ccccc2n1 | 123 to 125 °C
CCCn1c(S)nc2cc(S(N)(=O)=O)ccc21 | 190 to 194 °C
N#Cc1cccc(C(F)(F)F)n1 | 36 to 38 °C
O=C(CCn1ccnc1)Nc1cccc(C(=O)O)c1 | 216 to 218 °C
CC1=C(C(=O)O)Cc2ccccc2O1 | 234 to 236 °C
COCC(N)=O | 86 to 88 °C
Cc1nn(-c2ccccc2)c(N2CCCC2)c1C=O | 71 to 73 °C
O=C1C=CC(=O)N1CCc1ccccc1 | 109 to 111 °C

Compound | melting point
CNC(=O)NC(C)(C)C(=O)O | 139 to 141 °C
Nc1ccc(NC(=O)c2ccco2)cc1C(F)(F)F | 120 to 122 °C
O=C(O)CCc1ccccc1OC(F)(F)F | 49 to 51 °C
OCc1nc2cc(Br)ccc2[nH]1 | 179 to 181 °C
O=C(Nc1cccc2c1CCCN2)c1ccc(F)cc1 | 156 to 158 °C
CC1(C)Nc2ccccc2NC1=O | 179 to 181 °C
Nc1cnc(C2CC2)nc1 | 169 to 171 °C
O=C(O)C1C2CCCCC21 (stereo not given) | 86 to 88 °C
O=C(O)c1cn(-c2ccccc2C(F)(F)F)nn1 | 129 to 131 °C
COc1ccc(NS(=O)(=O)c2ccc(N3CCCCC3)c(N)c2)cc1 | 111 to 113 °C
Cc1cc(C=O)c(C)n1-c1ccc(F)c(F)c1F | 89 to 91 °C
Nc1ccc(S(=O)(=O)Nc2ccc(Cl)c(Cl)c2)cc1 | 223 to 225 °C
Fc1cccc(CBr)c1Cl | 39 to 41 °C
O=c1[nH]ccc2cc[nH]c12 | 279 to 281 °C
Nc1ccc2[nH]c(CC3CCCCC3)nc2c1 | 267 to 269 °C
CN1CCC(Nc2ccccc2N)CC1 | 86 to 88 °C
Cc1c(Cl)cccc1Nc1nnc(S)s1 | 189 to 191 °C
O=C(Nc1ccccc1C(F)(F)F)OCC(F)(F)F | 68 to 70 °C
Cc1cnc2c(c1)NCCO2 | 109 to 111 °C
Cc1ccc(Br)cc1S(N)(=O)=O | 139 to 141 °C
CN(c1ccccc1)S(=O)(=O)c1cc(C(=O)O)ccc1Br | 204 to 206 °C
O=C(O)C=Cc1cncc(F)c1 | 234 to 236 °C
N#Cc1ccccc1CN1CCOC1=O | 91 to 93 °C
O=S1(=O)CCNCN1 | 143 to 145 °C
CCCc1[nH]ncc1C(=O)O | 207 to 209 °C

Compound | melting point
Cc1cc(C(=O)O)ccc1N1C(=O)C=CC1=O | 203 to 205 °C
O=C(O)CN(Cc1ccccc1)Cc1ccccc1 | 195 to 197 °C
NC(=O)c1cc(C(F)(F)F)ccc1N1CCCC1 | 207 to 209 °C
CN(CC(=O)O)C(=O)Nc1cccc2ccccc12 | 126 to 128 °C
CN(Cc1cnn(C)c1)C(=O)CCl | 35 to 37 °C
NS(=O)(=O)c1ccc(F)cc1[N+](=O)[O-] | 153 to 155 °C
CCOC(=O)CCc1nnc(-c2ccc(Cl)cc2)o1 | 100 to 102 °C
Nc1ncnc(Cl)c1C=O | 159 to 161 °C
O=Cc1[nH]nnc1-c1ccccc1 | 169 to 171 °C
O=C(O)c1cc2cc(Br)sc2[nH]1 | 164 to 166 °C
Nc1nc(-c2ccc(F)cc2)ns1 | 154 to 156 °C
[N-]=[N+]=NCCN1C(=O)C(=O)c2ccccc21 | 71 to 73 °C
CN1C(=O)C=C(Br)C1=O | 84 to 86 °C
CNc1ncnc2nc[nH]c12 | 316 to 318 °C
CC(C)(C)OC(=O)NC1(C(=O)O)CCOC(C)(C)C1 (stereo not given) | 176 to 178 °C
Cc1cccc(-n2c(S)nnc2-c2ccccc2)c1 | 133 to 135 °C
O=[N+]([O-])c1cc(Cl)ccc1NC1CC1 | 70 to 72 °C
Cn1ncc(C(=O)O)c1N | 139 to 141 °C
NC(=O)c1c(NC(=O)CCl)sc2c1CCC2 | 181 to 183 °C
O=C(O)Cc1cc2c(cc1Br)OCCO2 | 220 to 222 °C
CCc1ccc(Nc2nnc(SCC(=O)O)s2)cc1 | 250 to 252 °C
O=C(CCl)NCC1COc2ccccc2O1 (stereo not given) | 212 to 214 °C
O=C1NC(=O)c2cnccc21 | 233 to 235 °C
O=C(O)CCc1ccc(-c2ccccc2)o1 | 118 to 120 °C
NCc1noc(-c2cccs2)n1 | 146 to 148 °C

Now from value to compound:

melting point | Compound
111 to 113 °C | Cc1ccnc(N)c1N
230 to 232 °C | COc1ccc(C(=O)O)cc1S(=O)(=O)NCc1ccc(Cl)cc1
89 to 91 °C | Cc1nc(COc2ccccc2C(=O)O)no1
130 to 139 °C | COCc1c(C(=O)O)sc2cccc(F)c12
93 to 95 °C | CC(C)c1ccc(C(=O)O)c(O)c1
79 to 81 °C | N#Cc1cccnc1NCCO
329 to 331 °C | Cc1nc(O)ccc1C(=O)O
201 to 203 °C | COC(=O)c1ccc(N)c([N+](=O)[O-])c1
129 to 131 °C | O=C(Nc1cccc(I)c1)C(F)(F)F
84 to 86 °C | COc1ccc2c(c1)CCCC2CC(=O)O (stereo not given)
103 to 105 °C | CC(C)C(NC(=O)c1ccco1)C(=O)O (stereo not given)
106 to 108 °C | COc1ccc(NC(C)=O)cc1N
163 to 165 °C | Cc1cc(C(=O)O)nc(-c2ccc(Cl)cc2)n1
178 to 182 °C | NC(=O)Nc1ccc2c(c1)OCO2
223 to 225 °C | COC(=O)c1c(C)n(C)c2ccc(O)cc12
261 to 263 °C | Cc1cc(C)c2nc(O)cc(C)c2c1
74 to 76 °C | N#Cc1ccnc(Cl)c1[N+](=O)[O-]
184 to 186 °C | Cc1cc(Br)cc(C)c1C(=O)O
110 to 112 °C | COC(=O)c1cc(S(=O)(=O)Cl)c(Cl)cc1Cl
180 to 182 °C | COC(=O)c1ccc(C)c(NCc2[nH]cnc2C)c1
119 to 121 °C | CCOC(=O)c1cc(Br)cc(S(N)(=O)=O)c1
173 to 175 °C | CC(=O)Nc1cccc(NC(=O)CCl)c1
104 to 106 °C | CCOc1ccc(OCCCC(=O)O)cc1

melting point | Compound
135 to 137 °C | CC(=O)Nc1ncccc1N
221 to 223 °C | COc1ccc2[nH]c(C(=O)O)cc2c1OC
132 to 134 °C | O=C(O)c1ccc2cccnn12
157 to 159 °C | COC(=O)c1cnc(NC2CC2)s1
169 to 171 °C | CCOC(=O)C1=C(CCl)NC(=O)NC1c1ccc(OC)cc1 (stereo not given)
43 to 45 °C | COC(=O)c1cc(OC)ccn1
49 to 51 °C | COCCOc1ccc(CC#N)cc1
197 to 199 °C | O=C(O)c1cccc(OCc2cn3ccccc3n2)c1
151 to 153 °C | COc1cccc(NC(=O)C=CC(=O)O)c1
55 to 57 °C | CC(=O)c1ccc(F)cc1OC(F)F
66 to 68 °C | CCc1ccc(CC)c(-c2csc(N)n2)c1
84 to 86 °C | COc1ccc(S(=O)(=O)Cl)c(C)c1C
75 to 77 °C | O=Cc1ccc(Cl)nc1
89 to 91 °C | COc1cccc(CNC(=O)C(C)Cl)c1 (stereo not given)
230 to 232 °C | COC(=O)c1ccc(-c2nn[nH]n2)cc1
145 to 147 °C | COc1ccccc1C(CN)NC(=O)OC(C)(C)C (stereo not given)
141 to 143 °C | COC(=O)COc1ccc([N+](=O)[O-])c2ccccc12
127 to 129 °C | CCOC(=O)c1ncccc1N
131 to 133 °C | Cc1cccc(-n2ncc(C(=O)O)n2)c1
49 to 51 °C | CS(=O)(=O)c1cccc(N)c1
59 to 61 °C | COCc1nc(CC(=O)O)cs1
155 to 157 °C | Cc1ccc(C)n1-c1cn[nH]c1
